# Results taken from patent US20060069132A1, “Azolecarboxamide herbicides” (priority 2004, published 2006).
# Tests used:
# yellow nutsedge = test: Test C pre-/postemergence herbicide test; type: in vivo, Cyperus esculentus
# Method in brief: (§1)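 Emerged plants at the 1- to 4-leaf stage (2–18 cm), or freshly planted seeds, received test chemicals in a non-phytotoxic solvent mixture with surfactant. Response was visually scored against controls after 12 to 14 days in the greenhouse, on a 0 (no effect) to 100 (complete control) scale.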
# barnyardgrass = test: Test B flooded paddy test; type: in vivo, Echinochloa crus-galli; conditions: 1000 g ai/ha, scale 0 to 100 (0 no effect, 100 complete control)
# Method in brief: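 Treated at 2-leaf (paddy) or 1–4-leaf, 2–18 cm (postemergence); greenhouse 13–15 d; visual score vs control, 0 none to 100 complete control; dash = not tested.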
# cocklebur = test: Test B pre-/postemergence herbicide test; type: in vivo, Xanthium strumarium
# Method in brief: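 Herbicidal effect was judged by eye on a 0–100 scale after plants stood 13 to 15 days in the greenhouse following pre- or postemergence treatment with surfactant-containing formulations.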
# velvetleaf = test: Test A pre-/postemergence herbicide test; type: in vivo, Abutilon theophrasti
# Method in brief: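 Both application timings were run together: directed soil spray over freshly planted seeds in sandy loam, and runoff spray onto 2–10 cm seedlings. Evaluation after ~10 days in greenhouse used a 0–100 visual scale versus untreated controls.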
# woolly cupgrass = test: Test C pre-/postemergence herbicide test; type: in vivo, Eriochloa villosa
# Method in brief: as §1
# common ragweed = test: Test C pre-/postemergence herbicide test; type: in vivo, Ambrosia elatior; set-up: key to Plant response rating, Ragweed: 0 = no effect, 100 = complete control
# Method in brief: as §1
# goosegrass = test: Test C pre-/postemergence herbicide test; type: in vivo, Eleusine indica
# Method in brief: as §1
# [1] = system: smallflower umbrella sedge; test: Test C flooded paddy test; type: in vivo, Cyperus difformis; conditions: for Plant response rating, Sedge, Umbrella: 500 g ai/ha, visual rating after 12 to 14 days
# [2] = 31 g ai/ha, preemergence, scale 0 to 100
# [3] = 125 g ai/ha, scale 0 (no effect) to 100 (complete control), visual, 12 to 14 days, preemergence
# [4] = Postemergence, 250 g ai/ha, scale 0 to 100, 0 no effect, 100 complete control
# [5] = postemergence, 125 g ai/ha, scale 0 to 100
# [6] = postemergence, 62 g ai/ha, scale 0 to 100
# [7] = 62 g ai/ha, preemergence, scale 0 to 100
# [8] = 250 g ai/ha, scale 0-100, preemergence
# [9] = 500 g ai/ha, scale 0 to 100 (0 no effect, 100 complete control), visual, 12 to 14 days, preemergence
# [10] = 125 g ai/ha, 0 is no effect, 100 is complete control, preemergence
# [11] = 125 g ai/ha, visual rating, scale 0 (no effect) to 100 (complete control), postemergence
# [12] = Postemergence, 500 g ai/ha, scale 0 (no effect) to 100 (complete control)
# [13] = 125 g ai/ha, scale 0 to 100 (0 no effect, 100 complete control)
# [14] = 250 g ai/ha, scale of 0 to 100, 0 is no effect, 100 is complete control
# [15] = scale 0 to 100 (0 no effect, 100 complete control)
compound,measurement,setting,value
C=Cn1nc(C(C)(C)C)cc1C(=O)Nc1cccc(C(C)=NO)c1 [Compound 114],"Plant response rating, Nutsedge, Yellow",yellow nutsedge; [2],0
same,"Plant response rating (0 = no effect, 100 = complete control), Nutsedge, Yellow","yellow nutsedge; 62 g ai/ha, preemergence",0
same,"Plant response rating, Nutsedge, Yellow",yellow nutsedge; [3],0
same,"Plant response rating, Nutsedge, Yellow",yellow nutsedge; [4],10
same,"Plant response rating, Nutsedge, Yellow",yellow nutsedge; [5],0
same,"Plant response rating, Nutsedge, Yellow",yellow nutsedge; [6],0
same,Barnyardgrass plant response rating,"barnyardgrass; visual rating, 13 to 15 days",70
same,"Plant response rating, Cocklebur","cocklebur; 500 g ai/ha, visual rating 0-100, 0 no effect, 100 complete control, preemergence",10
same,"Plant response rating, Cocklebur","cocklebur; Postemergence, 500 g ai/ha, visual rating after 13 to 15 days, scale 0 (no effect) to 100 (complete control)",90
same,Cocklebur plant response rating,"cocklebur; postemergence, 125 g ai/ha, visual rating, scale 0 (no effect) to 100 (complete control)",80
same,"Plant response rating, Cocklebur","cocklebur; preemergence, 125 g ai/ha, 0 to 100 scale, 0 is no effect, 100 is complete control",10
same,Velvetleaf plant response rating,"velvetleaf; Postemergence, 500 g ai/ha, 0 to 100 scale, 0 no effect, 100 complete control",20
same,"Plant response rating, Velvetleaf","velvetleaf; Postemergence, 2000 g ai/ha, 0 to 100 scale, 0 no effect, 100 complete control",20
same,Velvetleaf plant response rating,"velvetleaf; Preemergence, 500 g ai/ha, visual rating, 0 to 100 scale (0 no effect, 100 complete control)",35
same,Velvetleaf plant response rating,"velvetleaf; Preemergence, 2000 g ai/ha, visual rating, 0 to 100 scale (0 no effect, 100 complete control)",60
same,"Plant response rating, Cupgrass, Woolly",woolly cupgrass; [2],0
same,"Plant response rating, Cupgrass, Woolly",woolly cupgrass; [3],10
same,"Plant response rating, Cupgrass, Woolly","woolly cupgrass; 250 g ai/ha, scale 0 to 100 (0 no effect, 100 complete control), visual, 12 to 14 days, preemergence",30
same,"Plant response rating, Cupgrass, Woolly",woolly cupgrass; [4],70
same,"Plant response rating, Cupgrass, Woolly",woolly cupgrass; [5],70
same,"Plant response rating, Cupgrass, Woolly",woolly cupgrass; [6],70
same,"Plant response rating, Ragweed",common ragweed; [2],10
same,"Plant response rating (0 = no effect, 100 = complete control), Ragweed","common ragweed; 62 g ai/ha, preemergence",10
same,"Plant response rating, Ragweed",common ragweed; [3],10
same,"Plant response rating, Ragweed",common ragweed; [4],90
same,"Plant response rating, Ragweed",common ragweed; [5],80
same,"Plant response rating, Ragweed",common ragweed; [6],60
same,"Plant response rating, Goosegrass",goosegrass; [2],20
same,"Plant response rating (0 = no effect, 100 = complete control), Goosegrass","goosegrass; 62 g ai/ha, preemergence",40
same,"Plant response rating, Goosegrass",goosegrass; [3],80
same,"Plant response rating, Goosegrass",goosegrass; [4],70
same,"Plant response rating, Goosegrass",goosegrass; [5],60
same,"Plant response rating, Goosegrass",goosegrass; [6],60
CCc1nn(C(C)(C)C)nc1C(=O)Nc1cccc(C(=S)N(C)C)c1 [Compound 395],"Plant response rating, Nutsedge, Yellow",yellow nutsedge; [7],15
same,"Plant response rating (0 = no effect, 100 = complete control), Nutsedge, Yellow","yellow nutsedge; 125 g ai/ha, preemergence",55
same,"Plant response rating, Nutsedge, Yellow",yellow nutsedge; [8],80
same,"Plant response rating, Nutsedge, Yellow",yellow nutsedge; [9],90
same,Barnyardgrass plant response rating,barnyardgrass,90
same,"Plant response rating (0 to 100 scale), Cocklebur",cocklebur; [10],60
same,Cocklebur plant response rating,cocklebur; [11],70
same,Cocklebur plant response rating,cocklebur; [12],80
same,"Plant response rating, Cupgrass, Woolly",woolly cupgrass; [7],85
same,"Plant response rating (0 = no effect, 100 = complete control), Cupgrass, Woolly","woolly cupgrass; 125 g ai/ha, preemergence",95
same,"Plant response rating, Cupgrass, Woolly",woolly cupgrass; [8],100
same,"Plant response rating, Cupgrass, Woolly",woolly cupgrass; [9],100
same,"Sedge, Umbrella plant response rating","[1]; 62 g ai/ha, scale 0 to 100",70
same,"Sedge, Umbrella plant response rating",[1]; [13],80
same,"Sedge, Umbrella plant response rating",[1]; [14],85
same,"Plant response rating, Sedge, Umbrella",[1]; [15],85
same,"Plant response rating, Ragweed",common ragweed; [7],65
same,"Plant response rating (0 = no effect, 100 = complete control), Ragweed","common ragweed; 125 g ai/ha, preemergence",95
same,"Plant response rating, Ragweed",common ragweed; [8],100
same,"Plant response rating, Ragweed",common ragweed; [9],100
same,"Plant response rating, Goosegrass",goosegrass; [7],95
same,"Plant response rating (0 = no effect, 100 = complete control), Goosegrass","goosegrass; 125 g ai/ha, preemergence",95
same,"Plant response rating, Goosegrass",goosegrass; [8],100
same,"Plant response rating, Goosegrass",goosegrass; [9],100
CCc1nn(C(C)(C)C)nc1C(=S)Nc1cccc(C(=S)N(C)C)c1 [Compound 396],"Plant response rating, Nutsedge, Yellow",yellow nutsedge; [7],0
same,"Plant response rating (0 = no effect, 100 = complete control), Nutsedge, Yellow","yellow nutsedge; 125 g ai/ha, preemergence",25
same,"Plant response rating, Nutsedge, Yellow",yellow nutsedge; [8],45
same,"Plant response rating, Nutsedge, Yellow",yellow nutsedge; [9],80
same,Barnyardgrass plant response rating,barnyardgrass,90
same,"Plant response rating (0 to 100 scale), Cocklebur",cocklebur; [10],40
same,Cocklebur plant response rating,cocklebur; [11],20
same,Cocklebur plant response rating,cocklebur; [12],60
same,"Plant response rating, Cupgrass, Woolly",woolly cupgrass; [7],60
same,"Plant response rating (0 = no effect, 100 = complete control), Cupgrass, Woolly","woolly cupgrass; 125 g ai/ha, preemergence",90
same,"Plant response rating, Cupgrass, Woolly",woolly cupgrass; [8],100
same,"Plant response rating, Cupgrass, Woolly",woolly cupgrass; [9],100
same,"Sedge, Umbrella plant response rating","[1]; 62 g ai/ha, scale 0 to 100",70
same,"Sedge, Umbrella plant response rating",[1]; [13],75
same,"Sedge, Umbrella plant response rating",[1]; [14],85
same,"Plant response rating, Sedge, Umbrella",[1]; [15],90
same,"Plant response rating, Ragweed",common ragweed; [7],0
same,"Plant response rating (0 = no effect, 100 = complete control), Ragweed","common ragweed; 125 g ai/ha, preemergence",0
same,"Plant response rating, Ragweed",common ragweed; [8],80
same,"Plant response rating, Ragweed",common ragweed; [9],95
same,"Plant response rating, Goosegrass",goosegrass; [7],95
same,"Plant response rating (0 = no effect, 100 = complete control), Goosegrass","goosegrass; 125 g ai/ha, preemergence",100
same,"Plant response rating, Goosegrass",goosegrass; [8],100
same,"Plant response rating, Goosegrass",goosegrass; [9],100
